Measured values published in PMC5654082 (Malaria Journal, 2017).
Where a name gives a salt, the structure may show the parent alone.

What was measured:
MATE1 [1] = molecular target: T1, MATE1 (Homo sapiens, UniProt Q96FL8); experiment: MATE1-mediated uptake in transduced HEK293 cells; assay type: cell-based; parameters: host or cells: HEK293, baculovirus transduction (CMV promoter), transient; settings: 100 µM, 5 min
T1 sequence (Q96FL8 1-570): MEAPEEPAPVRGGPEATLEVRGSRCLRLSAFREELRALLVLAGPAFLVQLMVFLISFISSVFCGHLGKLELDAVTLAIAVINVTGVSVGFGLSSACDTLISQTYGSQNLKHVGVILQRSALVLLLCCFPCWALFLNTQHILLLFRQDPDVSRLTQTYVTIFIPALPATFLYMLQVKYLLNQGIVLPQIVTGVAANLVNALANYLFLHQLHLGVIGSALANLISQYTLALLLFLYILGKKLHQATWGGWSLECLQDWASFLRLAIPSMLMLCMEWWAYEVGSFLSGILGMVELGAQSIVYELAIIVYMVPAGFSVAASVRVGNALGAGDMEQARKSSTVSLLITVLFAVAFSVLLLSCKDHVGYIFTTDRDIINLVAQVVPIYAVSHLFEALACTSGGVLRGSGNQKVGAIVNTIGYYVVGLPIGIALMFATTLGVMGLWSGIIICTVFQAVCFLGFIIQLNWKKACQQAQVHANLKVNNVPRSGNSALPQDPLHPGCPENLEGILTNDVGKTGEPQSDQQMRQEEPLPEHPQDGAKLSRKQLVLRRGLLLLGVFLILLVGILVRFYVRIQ
Procedure: (§1) HEK293 cells were modified to transiently express (a combination of) human OCT1, OCT2, MATE1, MATE2-K, or eYFP. Briefly, cDNA of the respective genes was cloned downstream of a CMV promoter into a baculovirus, of which passage three was used to transduce HEK293 cells. These cells were seeded in poly-D-lysine coated 24- or 96-wells plates and grown in a 37 °C incubator at 5% CO2. Growth was initiated at ~ 25% confluency using 375 or 125 μL cell and complete medium (DMEM + GlutaMAX™-I supplemented with 10% fetal bovine serum) suspension per well, respectively. […]
Import and export of PG and cycloguanil (CG) was assessed by single and double transduced HEK293 cells. […] Following the same procedure as for the cellular import assay described above, the import of 100 µM PG and CG was measured after 5 min incubation and data was plotted as mean pmol/mg/min ± SEM. […] Significant reduction in uptake (i.e. export by MATEs) was determined using ln transformation and a one-way repeated measures ANOVA with Dunnet’s post test.
Anti-malarial concentration in the cell lysates was quantified using an LC–MS/MS system consisting of a UPLC, a binary solvent manager, a vacuum degasser and an autosampler, coupled to a Xevo TQ-S micro triple quadrupole mass spectrometer. […] The peak area of the most abundant product ion was used for quantification.

[2] = co-administration of EFV; cited from earlier work
MATE1 [3] = molecular target: T1, MATE1; experiment: Export assay in HEK293 cells co-transduced with OCT1 and MATE1; assay type: cell-based; parameters: host or cells: HEK293, baculovirus transduction (CMV promoter), transient; co-transduced with human OCT1 in the export assay; settings: cells expressing OCT1 and MATE1; 1 µM, 1 min, pH 7.4
Procedure: as §1
Import and export of PG and cycloguanil (CG) was assessed by single and double transduced HEK293 cells. […] Significant reduction in uptake (i.e. export by MATEs) was determined using ln transformation and a one-way repeated measures ANOVA with Dunnet’s post test.
Anti-malarial concentration in the cell lysates was quantified using an LC–MS/MS system consisting of a UPLC, a binary solvent manager, a vacuum degasser and an autosampler, coupled to a Xevo TQ-S micro triple quadrupole mass spectrometer. […] Positive ion mode was used with selected reaction monitoring (SRM) for the quantitative analysis of AMO, ART, ATO, CQ, CG, DHA, LUM, MQ, PQ, PG, and QN. The peak area of the most abundant product ion was used for quantification.

Row | SMILES | Uptake by MATE1 (MATE1 [1]) | Increase of Cmax of PG by EFV [2] | Uptake, percentage of eYFP control cells (MATE1 [3])
1 | CC1(C)N=C(N)N=C(N)N1c1ccc(Cl)cc1 [Cycloguanil] | 40 ± 9 pmol/mg/min | – | –
2 | [H]/N=C(\N/C(=N/[H])Nc1ccc(Cl)cc1)NC(C)C [Proguanil, proguanil hydrochloride] | 430 ± 110 pmol/mg/min | 47% | 780 ± 70%
